Experimental data reported in US11028084B2, “Selective inhibitors of gentotoxic steress-induced IKK/NF-κB pathways” (Max-Delbrück-Centrum für Molekulare Medizin in der …, priority 2016, dated 2021).

Assays:
PARP1 = target: T1, PARP1 (Mus musculus, UniProt P11103); assay: PARP1 enzymatic activity, PAR chain formation after γ-irradiation, MEF cells; format: cell-based
T1 construct: endogenous in cells; host or cells: MEF (mouse embryonic fibroblasts)
Excerpt: FIG. 10: (A) MEF cells were pre-treated with the indicated substances, irradiated and cell lysates were used for poly(ADP)-ribose probing using a specific antibody. (B) Experiment performed as described for (A), but using U2OS cells.

HEK293 cells = assay: Crystal violet staining (cell number), HEK293 cells; format: cell-based, human
Method: FIG. 16: (A) U2OS cells were pre-treated with DMSO or MW01 and irradiated. Cells were lysed 8 h post γ-IR and were used for western blotting and immunochemical staining. (B) HEK293 cells were pre-treated with DMSO or MW01 and irradiated. After 48 h cells were fixed and stained with crystal violet. Dissolved crystal violet was used for absorbance measurement in a visible light spectrophotometer at a wavelength of 595 nm. (C) HEK293 cells were pre-treated with DMSO or MW01 and irradiated. The percentage of viable cells within the population was calculated by exclusion of annexin V and propidium-iodide positive cells measured by flow cytometry. (D) MEF cells were pre-treated with DMSO or MW01 and irradiated. Cells were used for annexin V staining 24 h and 48 after γ-IR. Percentage of annexin V positive cell population was analysed using a flow cytometer. (E) Experiment done as shown in (D) but with HT1080 cells processed 8 h after irradiation. Statistical significance was calculated using students t-test.
For crystal violet staining, cells were washed with ice-cold PBS and fixed with 4% PFA in PBS for 15 min under a fume hood. After washing with PBS, cells were stained with 0.1% crystal violet for 20 min at RT. […] Then, 0.25 ml of stain was diluted 1:4 in ddH2O and absorbance was measured at 595 nm using a spectrophotometer against 10% acetic acid as blank.

T1 sequence (P11103 whole entry): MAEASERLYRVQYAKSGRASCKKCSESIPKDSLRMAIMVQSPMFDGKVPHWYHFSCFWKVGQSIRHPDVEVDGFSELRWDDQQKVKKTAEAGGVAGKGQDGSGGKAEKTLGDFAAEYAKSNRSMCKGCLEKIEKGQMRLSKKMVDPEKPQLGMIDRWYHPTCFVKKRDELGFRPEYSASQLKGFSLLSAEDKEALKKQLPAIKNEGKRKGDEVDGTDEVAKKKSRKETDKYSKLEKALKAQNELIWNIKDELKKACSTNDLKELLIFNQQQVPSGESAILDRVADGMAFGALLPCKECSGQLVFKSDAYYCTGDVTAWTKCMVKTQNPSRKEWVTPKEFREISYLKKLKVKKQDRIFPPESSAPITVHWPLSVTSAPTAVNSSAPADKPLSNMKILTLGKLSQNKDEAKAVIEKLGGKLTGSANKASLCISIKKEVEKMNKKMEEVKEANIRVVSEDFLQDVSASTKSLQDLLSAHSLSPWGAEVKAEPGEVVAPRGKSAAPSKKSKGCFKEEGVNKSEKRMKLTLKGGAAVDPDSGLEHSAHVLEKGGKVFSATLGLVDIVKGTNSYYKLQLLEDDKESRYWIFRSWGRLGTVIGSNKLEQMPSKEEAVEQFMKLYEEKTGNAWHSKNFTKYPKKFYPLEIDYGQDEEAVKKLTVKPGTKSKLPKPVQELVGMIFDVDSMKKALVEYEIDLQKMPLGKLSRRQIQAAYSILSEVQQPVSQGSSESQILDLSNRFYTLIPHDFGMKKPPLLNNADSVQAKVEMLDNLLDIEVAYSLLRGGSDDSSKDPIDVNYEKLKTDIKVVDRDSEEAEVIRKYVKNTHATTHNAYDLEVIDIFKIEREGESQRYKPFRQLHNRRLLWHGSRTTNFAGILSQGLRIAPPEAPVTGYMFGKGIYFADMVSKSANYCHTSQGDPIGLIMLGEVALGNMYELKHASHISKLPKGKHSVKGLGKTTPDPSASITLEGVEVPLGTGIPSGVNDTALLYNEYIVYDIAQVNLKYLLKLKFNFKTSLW

COc1ccc2c(c1OC)c(=O)n1c3ccc(O)cc3c3ccnc2c31 [MW01, 12-hydroxy-6,7-dimethoxy-8H-benzo[c]indolo[3,2,1-ij][1,5]naphthyridin-8-one]
PAR chain formation / PARP1 enzymatic activity (PARP1): did not interfere with activation of PARP1 enzymatic activity
cell number compared to the DMSO/IR control (HEK293 cells; HEK293, 48 h after irradiation): significant effect on further reduction in cell number
cell number in comparison to DMSO treated samples (HEK293 cells; HEK293, not irradiated): reduced the cell number
